In the NIST ThermoML archive (doi:10.1021/je800664z):
± gives the expanded uncertainty stated by the source.

Test: refractive index (Na D-line) (dimensionless); xn = mol fraction of the nth substance listed
Details: 101 kPa, Liquid, Standard Abbe refractometry

C1COCO1 [1,3-dioxolane] + CC(C)CC(C)(C)C
refractive index
Details	288.15 K	298.15 K	308.15 K
x1 = 0.0501	1.39395 ± 0.00032	1.38898 ± 0.00032	1.38381 ± 0.00032
x1 = 0.1	1.39385 ± 0.00032	1.38885 ± 0.00032	1.38367 ± 0.00032
x1 = 0.15	1.39377 ± 0.00032	1.38876 ± 0.00032	1.38361 ± 0.00032
x1 = 0.2	1.39374 ± 0.00032	1.38876 ± 0.00032	1.3836 ± 0.00032
x1 = 0.25	1.39378 ± 0.00032	1.38883 ± 0.00032	1.3837 ± 0.00032
x1 = 0.3	1.39389 ± 0.00032	1.38897 ± 0.00032	1.38387 ± 0.00032
x1 = 0.35	1.39411 ± 0.00032	1.3892 ± 0.00032	1.3841 ± 0.00032
x1 = 0.4	1.3944 ± 0.00032	1.38948 ± 0.00032	1.3844 ± 0.00032
x1 = 0.45	1.39473 ± 0.00032	1.38982 ± 0.00032	1.38476 ± 0.00032
x1 = 0.5	1.39512 ± 0.00032	1.39022 ± 0.00032	1.38517 ± 0.00032
x1 = 0.55	1.39558 ± 0.00032	1.39068 ± 0.00032	1.38563 ± 0.00032
x1 = 0.6	1.3961 ± 0.00032	1.3912 ± 0.00032	1.38614 ± 0.00032
x1 = 0.65	1.39668 ± 0.00032	1.39178 ± 0.00032	1.38672 ± 0.00032
x1 = 0.7	1.39734 ± 0.00032	1.39243 ± 0.00032	1.38739 ± 0.00032
x1 = 0.75	1.39807 ± 0.00032	1.39318 ± 0.00032	1.38814 ± 0.00032
x1 = 0.8	1.39883 ± 0.00032	1.39399 ± 0.00032	1.38895 ± 0.00032
x1 = 0.85	1.39966 ± 0.00033	1.39487 ± 0.00033	1.38987 ± 0.00033
x1 = 0.9	1.40055 ± 0.00033	1.39581 ± 0.00033	1.3909 ± 0.00033
x1 = 0.95	1.40152 ± 0.00033	1.39683 ± 0.00033	1.39199 ± 0.00033
x1 = 1	1.40252 ± 0.00033	1.39795 ± 0.00033	1.39322 ± 0.00033

C1COCO1 [1,3-dioxolane] + CC(C)O
refractive index
Details	288.15 K	298.15 K	308.15 K
x1 = 0.05	1.38037 ± 0.00033	1.37601 ± 0.00033	1.37126 ± 0.00033
x1 = 0.1	1.38139 ± 0.00033	1.37686 ± 0.00033	1.37207 ± 0.00033
x1 = 0.15	1.38242 ± 0.00033	1.37776 ± 0.00033	1.37295 ± 0.00033
x1 = 0.2	1.38343 ± 0.00033	1.37869 ± 0.00033	1.37388 ± 0.00033
x1 = 0.25	1.38447 ± 0.00033	1.37966 ± 0.00033	1.37483 ± 0.00033
x1 = 0.3001	1.3855 ± 0.00033	1.38065 ± 0.00033	1.37579 ± 0.00033
x1 = 0.35	1.38655 ± 0.00033	1.38168 ± 0.00033	1.3768 ± 0.00033
x1 = 0.4	1.38763 ± 0.00033	1.38274 ± 0.00033	1.37785 ± 0.00033
x1 = 0.45	1.38875 ± 0.00033	1.38384 ± 0.00033	1.37894 ± 0.00033
x1 = 0.5	1.3899 ± 0.00033	1.38496 ± 0.00033	1.38006 ± 0.00033
x1 = 0.55	1.39107 ± 0.00033	1.38611 ± 0.00033	1.38121 ± 0.00033
x1 = 0.6	1.39227 ± 0.00033	1.38729 ± 0.00033	1.38238 ± 0.00033
x1 = 0.65	1.39348 ± 0.00033	1.3885 ± 0.00033	1.38359 ± 0.00033
x1 = 0.7001	1.39473 ± 0.00033	1.38975 ± 0.00033	1.38483 ± 0.00033
x1 = 0.75	1.396 ± 0.00033	1.39103 ± 0.00033	1.38608 ± 0.00033
x1 = 0.8	1.39731 ± 0.00033	1.39234 ± 0.00033	1.38737 ± 0.00033
x1 = 0.85	1.39862 ± 0.00033	1.39368 ± 0.00033	1.38872 ± 0.00033
x1 = 0.9	1.39993 ± 0.00033	1.39509 ± 0.00033	1.39013 ± 0.00033
x1 = 0.95	1.40123 ± 0.00033	1.39653 ± 0.00033	1.39165 ± 0.00033
x1 = 1	1.40252 ± 0.00033	1.39795 ± 0.00033	1.39322 ± 0.00033
